In assay [1] the target is T1, human GST-DYRK1A (full length) (Homo sapiens, UniProt Q13627).
T1 construct: purified human GST-DYRK1A (full length, Thermo scientifics) enzyme; GST; purchased Thermo scientifics
Briefly: GST-DYRK1A enzyme inhibition, ADP-Glo kinase assay. The class given is biochemical. Conditions: read-out: DYRK1 IC50. In a few lines: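 ADP-Glo luminescence quantified kinase activity after a 1 h, 25° C reaction of 10 ng full-length GST-tagged human DYRK1A, substrate and 10 uM ATP in Tris-HCl buffer pH 7.4 with MgCl2, BSA and DTT. Triplicate IC50 values (nM) calculated relative to untreated solvent control.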

The subject of another assay is MDA-MB-231 cell line. Briefly: MDA-MB-231 cancer cell proliferation inhibition (Cell Titer-Glo). Conditions: Homo sapiens, MDA-MB-231 triple-negative breast cancer cell line, 72 hours. The class given is cell-based. As for the experimental part:
(§1) In order to evaluate the cancer cell proliferation inhibitory activity of the compounds of the present invention, the following experiments were performed.
(§2) To evaluate the cancer cell proliferation inhibitory effect, the cell growth rate analysis was performed while culturing MDA-MB-231 cell line (Korean Cell Line Bank #30026) and MDA-MB-468 cell line as the triple-negative breast cancer cell line, and SHP-77 (ATCC #CRL-2195) as the small cell lung cancer cell line in DMEM (HyClone #SH30243) and RPMI medium (HyClone #SH3027.01), respectively. More specifically, the cell lines were each plated at 2000 cells/100 μl in each well of a 96-well flat-bottom plate (coming #3903), and then the example compounds having eleven concentrations which were diluted by ⅓ so that the final concentrations were 10.000000, 3.333333, 1.111111, 0.370370, 0.123457, 0.041152, 0.013717, 0.004572, 0.001524, 0.000508 and 0.000169 μM were treated. After 72 hours, 100 μl of Cell Titer-Glo (Promega G7573) was treated, incubated at RT for 10 minutes, and then luminescence was measured using a microplate reader. The measured luminescence degree was calculated as GI50 using Prism (version 8.2 GraphPad) software.
(§3) In the table below, the following designations were used for the evaluation of proliferation inhibitory activity.

A further assay has as its target T2, human GST-CLK1 (129-end) (Homo sapiens, UniProt P49759).
T2 construct: purified human GST-CLK1 (129-end, Signalchem) enzyme; GST; purchased Signalchem
Briefly: GST-CLK1 enzyme inhibition, ADP-Glo kinase assay. The assay is classed as biochemical. The settings on record: ATP 10 uM. Summed up: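 ADP formation was read by ADP-Glo luminescence after 1 h at 25° C with 3 ng human GST-CLK1 (129-end), substrate and 10 uM ATP in Tris pH 7.4 buffer containing MgCl2, BSA and DTT. Inhibition relative to untreated solvent control gave IC50 (nM), run in triplicate.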

Another assay has as its target LRRK2 (G2019S) (Homo sapiens, UniProt Q5S007, G2019S). Briefly: LRRK2 G2019S enzyme inhibition, ADP-Glo kinase assay. The assay is classed as biochemical. On the set-up: purchased SignalChem L10-12GG. In a few lines: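 Activity read as ADP-Glo luminescence, normalized to untreated solvent control, with IC50 (nM) fitted over 12 final compound levels (top 50 μM). Reaction: 2 h, 25° C, human LRRK2 G2019S 16 ng, ATP 25 μM, substrate 0.2 μg, in Tris-HCl pH 7.4 with MgCl2, BSA and DTT.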

The target in another assay is LRRK2 (Homo sapiens, UniProt Q5S007). Briefly: LRRK2 enzyme inhibition, ADP-Glo kinase assay. The class given is biochemical. More on the design: purchased Invitrogen PR8604B. Summed up:
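ADP-Glo luminescence read after 2 h at 25° C, 10 μM ATP, 25 ng purified human LRRK2 and […] substrate in Tris-HCl pH7.4 buffer with MgCl2, BSA, DTT. Twelve final concentrations, 50 μM down to 0.000001024 μM; IC50 (nM) from inhibition relative to untreated solvent control.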

A further assay concerns SHP-77. Briefly: SHP-77 cancer cell proliferation inhibition (Cell Titer-Glo). The class given is cell-based. The settings on record: Homo sapiens, SHP77, SHP-77 small cell lung cancer cell line, 72 hours. As for the experimental part: as §1, §2, §3

Each structure is given as a SMILES string.

T2 sequence (P49759 129-484 limits assumed): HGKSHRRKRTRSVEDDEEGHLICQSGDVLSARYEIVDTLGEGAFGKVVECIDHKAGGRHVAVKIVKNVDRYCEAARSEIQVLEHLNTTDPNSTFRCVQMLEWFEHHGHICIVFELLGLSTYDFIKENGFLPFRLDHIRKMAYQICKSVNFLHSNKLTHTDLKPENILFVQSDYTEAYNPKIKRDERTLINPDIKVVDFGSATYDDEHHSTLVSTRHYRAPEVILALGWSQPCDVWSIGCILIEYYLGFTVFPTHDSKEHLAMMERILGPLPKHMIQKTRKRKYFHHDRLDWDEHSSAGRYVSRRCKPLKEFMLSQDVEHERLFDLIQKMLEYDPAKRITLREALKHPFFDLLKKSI
LRRK2 (G2019S), sequence (Q5S007 970-2527 G2019S limits assumed): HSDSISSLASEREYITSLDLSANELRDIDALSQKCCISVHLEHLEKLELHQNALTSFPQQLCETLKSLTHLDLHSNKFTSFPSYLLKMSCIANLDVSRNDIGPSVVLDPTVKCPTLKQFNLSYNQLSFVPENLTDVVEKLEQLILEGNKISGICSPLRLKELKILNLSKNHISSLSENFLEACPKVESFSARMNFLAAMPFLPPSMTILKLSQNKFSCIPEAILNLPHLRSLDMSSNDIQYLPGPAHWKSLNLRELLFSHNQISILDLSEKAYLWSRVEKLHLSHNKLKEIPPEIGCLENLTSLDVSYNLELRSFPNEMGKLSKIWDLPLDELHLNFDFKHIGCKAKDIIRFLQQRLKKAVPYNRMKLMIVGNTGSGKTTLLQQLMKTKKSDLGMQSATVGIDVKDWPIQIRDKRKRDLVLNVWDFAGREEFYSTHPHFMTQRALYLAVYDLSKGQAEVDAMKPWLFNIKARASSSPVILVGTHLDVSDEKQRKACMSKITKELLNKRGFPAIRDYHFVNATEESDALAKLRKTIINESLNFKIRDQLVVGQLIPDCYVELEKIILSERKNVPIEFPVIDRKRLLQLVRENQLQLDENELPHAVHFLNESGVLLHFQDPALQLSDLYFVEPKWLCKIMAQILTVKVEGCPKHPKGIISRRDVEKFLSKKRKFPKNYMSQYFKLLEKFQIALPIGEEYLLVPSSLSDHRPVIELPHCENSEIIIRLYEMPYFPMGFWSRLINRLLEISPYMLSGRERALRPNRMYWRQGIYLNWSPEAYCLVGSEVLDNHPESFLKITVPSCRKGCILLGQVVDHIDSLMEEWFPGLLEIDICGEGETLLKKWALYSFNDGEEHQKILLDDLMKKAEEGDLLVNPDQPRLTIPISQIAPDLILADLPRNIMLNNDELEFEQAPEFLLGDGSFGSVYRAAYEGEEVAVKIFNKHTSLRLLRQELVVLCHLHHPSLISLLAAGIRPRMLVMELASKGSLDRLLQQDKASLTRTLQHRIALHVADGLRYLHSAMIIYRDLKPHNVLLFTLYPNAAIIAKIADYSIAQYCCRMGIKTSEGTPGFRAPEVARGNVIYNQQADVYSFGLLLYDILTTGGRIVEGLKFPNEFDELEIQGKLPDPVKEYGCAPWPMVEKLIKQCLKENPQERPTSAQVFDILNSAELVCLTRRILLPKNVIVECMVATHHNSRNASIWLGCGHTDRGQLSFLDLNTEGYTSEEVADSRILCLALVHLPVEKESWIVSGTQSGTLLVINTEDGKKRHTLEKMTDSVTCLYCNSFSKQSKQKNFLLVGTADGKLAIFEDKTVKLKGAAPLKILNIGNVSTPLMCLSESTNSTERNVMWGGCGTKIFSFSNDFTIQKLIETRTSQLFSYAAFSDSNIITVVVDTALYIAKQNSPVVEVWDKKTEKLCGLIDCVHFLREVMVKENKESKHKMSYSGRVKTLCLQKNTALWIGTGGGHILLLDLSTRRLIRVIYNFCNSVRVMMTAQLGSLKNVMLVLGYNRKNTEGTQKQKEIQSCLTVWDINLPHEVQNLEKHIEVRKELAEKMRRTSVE
LRRK2, sequence (Q5S007 970-2527 limits assumed): as the sequence (Q5S007 970-2527 G2019S limits assumed) above, with S1050G counted along it

For the molecule `COCCNc1cc(Nc2ccc(S(=O)(=O)N3CCOCC3)cc2OC)nc2[nH]cc(C#N)c12` [Example 129, 6-((2-methoxy-4-(morpholinosulfonyl)phenyl)amino)-4-((2-methoxyethyl)amino)-1H-pyrrolo[2,3-b]pyridine-3-carbonitrile], the IC50 was 301 to 1000 nM in assay [1], 301 to 1000 nM at human GST-CLK1 (129-end), less than 100 nM against LRRK2 (G2019S) and less than 100 nM on LRRK2. For the same molecule, the results for the GI50 in the assay with MDA-MB-231 cell line and with SHP-77 were 101 to 300 nM and less than 50 nM, respectively.
In the case of `COc1cc(S(=O)(=O)N2CCOCC2)ccc1Nc1cc(NC2CCC2)c2c(C#N)c[nH]c2n1` [Example 128, 4-(cyclobutylamino)-6-((2-methoxy-4-(morpholinosulfonyl)phenyl)amino)-1H-pyrrolo[2,3-b]pyridine-3-carbonitrile], the concentration for half-maximal inhibition (IC50) in assay [1] was 301 to 1000 nM; against human GST-CLK1 (129-end), 301 to 1000 nM; against LRRK2 (G2019S), 301 to 1000 nM; against LRRK2, less than 100 nM. Besides, the GI50 in the assay with MDA-MB-231 cell line is 51 to 100 nM; in the assay on SHP-77, less than 50 nM.
In the case of `COc1cc(S(=O)(=O)N2CCC(N3CCOCC3)CC2)ccc1Nc1cc(NC2CCC2)c2c(C#N)c[nH]c2n1` [Example 135, 4-(cyclobutylamino)-6-((2-methoxy-4-((4-morpholinopiperidin-1-yl)sulfonyl)phenyl)amino)-1H-pyrrolo[2,3-b]pyridine-3-carbonitrile], the IC50 in assay [1] was 301 to 1000 nM; against human GST-CLK1 (129-end), 301 to 1000 nM; at LRRK2 (G2019S), less than 100 nM; against LRRK2, less than 100 nM. Moreover, the GI50 in the assay on MDA-MB-231 cell line is 51 to 100 nM; with SHP-77, less than 50 nM.
Consider `CCNc1cc(Nc2ccc(S(=O)(=O)N3CCOCC3)c3c2OCCO3)nc2[nH]cc(C(F)(F)F)c12` [Example 99, N^4-ethyl-N^6-(8-(morpholonosulfonyl)-2,3-dihydrobenzo[b] [1,4]dioxin-5-yl)-3-(trifluoromethyl)-1H-pyrrolo[2,3-b]pyridine-4,6-diamine], for which the half-inhibitory concentration (IC50) (in assay [1]; at human GST-CLK1 (129-end); against LRRK2 (G2019S); against LRRK2) was 301 to 1000 nM throughout. In addition, the GI50 with MDA-MB-231 cell line and in the assay with SHP-77 was 301 to 1000 nM in each case.
Turning to `COCCNc1cc(Nc2ccc(S(=O)(=O)N3CCOCC3)cc2OC)nc2[nH]cc(C(F)(F)F)c12` [Example 195, N^6-(2-methoxy-4-(morpholinosulfonyl)phenyl)-N^4-(2-methoxyethyl)-3-(trifluoromethyl)-1H-pyrrolo[2,3-b]pyridine-4,6-diamine], the concentration for half-maximal inhibition (IC50) (in assay [1]; against human GST-CLK1 (129-end); against LRRK2 (G2019S); at LRRK2) was 301 to 1000 nM throughout. The GI50 fell in the range of 301 to 1000 nM in the assay with MDA-MB-231 cell line and 101 to 300 nM in the assay with SHP-77.
With `COc1cc(S(=O)(=O)N2CCC(N3CCOCC3)CC2)ccc1Nc1cc(NCCS(C)(=O)=O)c2c(C#N)c[nH]c2n1` [Example 141, 6-((2-methoxy-4-((4-morpholinopiperidin-1-yl)sulfonyl)phenyl)amino)-4-((2-(methylsulfonyl)ethyl)amino)-1H-pyrrolo[2,3-b]pyridine-3-carbonitrile], the IC50 was less than 100 nM in assay [1], 301 to 1000 nM against human GST-CLK1 (129-end) and less than 100 nM against LRRK2. The results for the GI50 in the assay on MDA-MB-231 cell line and with SHP-77 were 101 to 300 nM and 51 to 100 nM, respectively.
As for `COc1cc(S(=O)(=O)N2CCC(N3CCOCC3)CC2)ccc1Nc1cc(NC2CC2)c2c(C(F)(F)F)c[nH]c2n1` [Example 188, N^4-cyclopropyl-N^6-(2-methoxy-4-((4-morpholinopiperidin-1-yl)sulfonyl)phenyl)-3-(trifluoromethyl)-1H-pyrrolo[2,3-b]pyridine-4,6-diamine 2,2,2-trifluoroacetate], the IC50 in assay [1] was 301 to 1000 nM; on human GST-CLK1 (129-end), 301 to 1000 nM; against LRRK2 (G2019S) it was 101 to 300 nM; against LRRK2, less than 100 nM. The concentration for 50% growth inhibition (GI50) in the assay with MDA-MB-231 cell line fell in the range of 301 to 1000 nM; in the assay on SHP-77, 101 to 300 nM.
On to `CCNc1cc(Nc2ccc(S(=O)(=O)N3CCOCC3)cc2OC)nc2[nH]cc(C(F)(F)F)c12` [Example 179, N^4-ethyl-N^6-(2-methoxy-4-(morpholinosulfonyl)phenyl)-3-(trifluoromethyl)-1H-pyrrolo[2,3-b]pyridine-4,6-diamine], for which the IC50 (in assay [1]; against human GST-CLK1 (129-end); at LRRK2 (G2019S); at LRRK2) was 301 to 1000 nM throughout. Further, the concentration for 50% growth inhibition (GI50) in the assay on MDA-MB-231 cell line and in the assay with SHP-77 was 301 to 1000 nM in each case.
Consider `COCCNc1cc(Nc2ccc(S(=O)(=O)N3CCC(N4CCOCC4)CC3)cc2OC)nc2[nH]cc(C(F)(F)F)c12` [Example 197, N^6-(2-methoxy-4-((4-morpholinopiperidin-1-yl)sulfonyl)phenyl)-N^4-(2-methoxyethyl)-3-(trifluoromethyl)-1H-pyrrolo[2,3-b]pyridine-4,6-diamine], for which the 50% inhibitory concentration (IC50) in assay [1] is 101 to 300 nM; at human GST-CLK1 (129-end) it was less than 100 nM; on LRRK2 (G2019S) it was less than 100 nM; against LRRK2, less than 100 nM. For the same molecule, the concentration for 50% growth inhibition (GI50) in the assay with MDA-MB-231 cell line is 301 to 1000 nM; in the assay on SHP-77, 101 to 300 nM.
`COC[C@@H](C)Nc1cc(Nc2ccc(S(=O)(=O)N3CCC(N4CCOCC4)CC3)cc2OC)nc2[nH]cc(C(F)(F)F)c12` [Example 196, (R)-N^6-(2-methoxy-4-((4-morpholinopiperidin-1-yl)sulfonyl)phenyl)-N^4-(1-methoxypropan-2-yl)-3-(trifluoromethyl)-1H-pyrrolo[2,3-b]pyridine-4,6-diamine]: the IC50 in assay [1] is 301 to 1000 nM; against human GST-CLK1 (129-end), 301 to 1000 nM; on LRRK2, less than 100 nM. In addition, the values for the GI50 in the assay on MDA-MB-231 cell line and in the assay with SHP-77 were 301 to 1000 nM and 101 to 300 nM, respectively.
For `COc1cc(S(=O)(=O)N2CCOCC2)ccc1Nc1cc(NCCS(C)(=O)=O)c2c(C(F)(F)F)c[nH]c2n1` [Example 192, N^6-(2-methoxy-4-(morpholinosulfonyl)phenyl)-N^4-(2-(methylsulfonyl)ethyl)-3-(trifluoromethyl)-1H-pyrrolo[2,3-b]pyridine-4,6-diamine], the half-inhibitory concentration (IC50) in assay [1] is less than 100 nM; against human GST-CLK1 (129-end), 301 to 1000 nM; at LRRK2 (G2019S), 301 to 1000 nM; against LRRK2, 101 to 300 nM. The 50% growth inhibitory concentration (GI50) in the assay with MDA-MB-231 cell line and in the assay with SHP-77 was 301 to 1000 nM in each case.
Consider `COc1cc(S(=O)(=O)N2CCC(N3CCOCC3)CC2)ccc1Nc1cc(NC2CCC2)c2c(C(F)(F)F)c[nH]c2n1` [Example 202, N^4-cyclobutyl-N^6-(2-methoxy-4-((4-morpholinopiperidin-1-yl)sulfonyl)phenyl)-3-(trifluoromethyl)-1H-pyrrolo[2,3-b]pyridine-4,6-diamine], for which the IC50 (in assay [1]; against human GST-CLK1 (129-end); against LRRK2) was 301 to 1000 nM in each case. Besides, the GI50 in the assay with MDA-MB-231 cell line and in the assay with SHP-77 was 301 to 1000 nM throughout.
On to `COc1cc(S(=O)(=O)N2CCOCC2)ccc1Nc1cc(NCCS(C)(=O)=O)c2c(C#N)c[nH]c2n1` [Example 130, 6-((2-methoxy-4-(morpholinosulfonyl)phenyl)amino)-4-((2-(methylsulfonyl)ethyl)amino)-1H-pyrrolo[2,3-b]pyridine-3-carbonitrile], for which the IC50 in assay [1] was 101 to 300 nM; against human GST-CLK1 (129-end), 301 to 1000 nM; on LRRK2 (G2019S), less than 100 nM; on LRRK2 it was less than 100 nM. Moreover, the concentration for 50% growth inhibition (GI50) in the assay on MDA-MB-231 cell line and in the assay with SHP-77 was 301 to 1000 nM throughout.
Consider `CCNc1cc(Nc2ccc(S(=O)(=O)N3CCC(N4CCOCC4)CC3)cc2OC)nc2[nH]cc(C#N)c12` [Example 138, 4-(ethylamino)-6-((2-methoxy-4-((4-morpholinopiperidin-1-yl)sulfonyl)phenyl)amino)-1H-pyrrolo[2,3-b]pyridine-3-carbonitrile], for which the IC50 is 101 to 300 nM in assay [1], 301 to 1000 nM at human GST-CLK1 (129-end), less than 100 nM against LRRK2 (G2019S) and less than 100 nM against LRRK2. Besides, the GI50 in the assay with MDA-MB-231 cell line and in the assay on SHP-77 was less than 50 nM throughout.

For the origin of these results see patent US12240844B2 (Voronoi, Inc., priority 2019, dated 2025).
